This passage reports melting point results from patent publication US6518265B1, “1H-imidazopyridine derivatives” (Hokuriku Seiyaku Co., Ltd., priority 1998, dated 2003).

Structures are written as SMILES. Where a name gives a salt, the structure may show the parent alone.

As usually defined, the melting point is the temperature, or range, at which the solid turns liquid.

In the case of `Clc1nc2ccccc2c2c1nc(-c1ccccc1)n2CC[C@@H]1CCCN1` (as salt: fumarate) (hydrate or solvate) [Example 134], the melting point is 261 to 272 °C (dec.).
Under `Clc1nc2ccsc2c2c1nc(-c1ccccc1)n2CCC1CCNCC1` (as salt: trifluoroacetate) (hydrate or solvate) [Example 137] stands 224 to 224.5 °C; under `Clc1nc2c(c3c1nc(-c1ccccc1)n3CCC1CCNCC1)CCCC2` (as salt: trifluoroacetate) [Example 135], 215 to 221 °C (dec.); under `Clc1nc2c(c3c1nc(-c1ccccc1)n3CCC1CCNCC1)CCC2` (as salt: trifluoroacetate) [Example 136], 225 to 232 °C (dec.).
Compound `CNc1nc2ccccc2c2c1nc(-c1ccccc1)n2CCC1CCN(C(=O)OC(C)(C)C)CC1` (hydrate or solvate) [Example 95] yielded a melting point of 161 to 162 °C.
Under `CC(C)(C)OC(=O)N1CCC(CCn2c(-c3ccccc3)nc3c(Cl)nc4c(c32)CCCC4)CC1` [Example 33] stands 215 to 218 °C (dec.); under `CC(C)(C)OC(=O)N1CCC(CCn2c(-c3ccccc3)nc3c(Cl)nc4ccsc4c32)CC1` [Example 35], 199 to 200 °C; under `Cc1ccc(S(=O)(=O)N2CCC(CCn3cnc4c(Oc5ccccc5)nc5ccccc5c43)CC2)cc1` [Example 197], 201.5 to 202 °C.
Under `CCOC(=O)N1CCC(CCn2cnc3c(Oc4ccccc4)nc4ccccc4c32)CC1` [Example 198] stands 132 to 133 °C.
The result for `CNC(=S)N1CCC(CCn2c(-c3ccccc3)nc3c(Cl)nc4ccccc4c32)CC1` [Example 201, 4-[2-(4-Chloro-2-phenyl-1H-imidazo[4,5-c]quinolin-1-yl)ethyl]-N-methyl-1-piperidinecarbothioamide] reads 215 to 220 °C (dec.).
